Results: patent US10981864B2, “Crystalline modifications of N-(4,5-bismethanesulfonyl-2-methylbenzoyl)guanidine hydrochloride and N-(4,5-bismethanesulfonyl-2-methylbenzoyl)guanidine salts” (MERCK PATENT GMBH, priority 2016, dated 2021)
Where “and” joins values, the source holds several entries; their conditions need not be identical. Identical values can stand only once.

Tests used:
human PASMCs = settings: in vitro; cited from earlier work
SuHx rats = settings: in vivo; cited from earlier work
[1] = Mini-dissolution in FeSSIF medium (pH 5.0), dissolved quantity by HPLC; type: physicochemical; settings: for Dissolution levels in FeSSIF pH 5.0: FeSSIF pH 5.0, 37° C.; for Dissolution behavior compared to prior-art form HCl-H1: biorelevant media, Fed-state conditions (FeSSIF, pH 5.0)
Protocol: Approximately 10-12 mg of N-(4,5-bis-methanesulfonyl-2-methyl-benzoyl)guanidine form HCl-H1 (HCl salt hydrate form, prior-art), HCl salt anhydrous forms (forms HCl-A1, HCl-A2, HCl-A3), and novel salt forms [phosphate salt (form Phosphate-NF1), maleate salt (form Maleate-NF2), oxalate salt (form Oxalate-NF1), citrate salt (form citrate-NF1), sulfate salt (form Sulfate-NF3), succinate salt (form Succinate-NF1), malonate salt (form Malonate-NF1), besylate salt (form Besylate-NF1), p-tosylate salt (form Tosylate-NF1), malate salt (form Malate-NF1), fumarate salt (form Fumarate-NF1), tartrate salt (form Tartrate-NF1)] are weighed into 4 mL glass vials, and dispersed in 4 mL FeSSIF medium (pH 5.0, Acetate buffer capacity increased by factor 4 to ensure stable pH conditions over course of dissolution experiments).
All dispersions are agitated at 37° C. for up to 2 hours. At defined time intervals (5 min, 15 min, 60 min, 120 min), 0.4 mL sample aliquots of homogeneous dispersions are withdrawn by a syringe, and filtrated via syringe filter adapters (PTFE, 0.2 μm). Clear filtrates are diluted (1:20) with respective Acetate blank buffer, and diluted samples analyzed by HPLC for dissolved quantities of N-(4,5-bis-methanesulfonyl-2-methyl-benzoyl)-guanidine.

[2] = Water Vapour Sorption isotherm (DVS), hygroscopicity acc. to Ph. Eur.; type: physicochemical; settings: for Water uptake levels (Water Vapour Sorption): 25° C.; for Tendency to undergo hydrate formation: upon exposure to elevated RH levels
Protocol: As used herein, unless stated otherwise, Water Vapour Sorption isotherm measurements are carried out on a DVS-1 or a DVS-Intrinsic system from SMS.
A second endothermic event occurs at >180° C., which is due to melting of the dehydrated form. This is followed by immediate re-crystallisation (exothermic event), and subsequent melting of the re-crystallized phase at >240° C. […] DSC scan of form HCl-H1 was acquired on a Mettler-Toledo DSC 821 with a heating rate of 5 K/min, using nitrogen purge gas at 50 mL/min. […] Form HCl-H1 can be classified as non-hygroscopic acc. to Ph. Eur. criteria (section 5.11.). […] Water Vapour Sorption isotherm was acquired on a DVS-1 system from SMS. • Dissolution level of form HCl-H1 in Fed-State Simulated Intestinal Fluid [FeSSIF, pH 5.0] at 37° C. was determined to be approx. 1.50 mg/mL (after 15 min), approx. 4.16 mg/mL (after 60 min), and approx. 4.54 mg/mL (after 120 min), respectively (see example 17).

[3] = Thermal behaviour (DSC/TGA), thermal stability; type: physicochemical; settings: for Thermal stability (mp/dec): DSC/TGA 5 K/min
Protocol: As used herein, unless stated otherwise, the DSC measurements are carried out using a Mettler-Toledo DSC 821 with a heating rate of 5 K/min, using nitrogen purge gas at 50 mL/min.
As used herein, unless stated otherwise, the TGA measurements are carried out using a Mettler-Toledo TGA 851 with a heating rate of 5 K/min, using nitrogen purge gas at 50 mL/min.

[4] = target: sodium-hydrogen antiporter 1 (NHE-1) (Homo sapiens, UniProt P19634); settings: cited from earlier work
Chain of sodium-hydrogen antiporter 1 (NHE-1) (P19634 whole entry, species assumed): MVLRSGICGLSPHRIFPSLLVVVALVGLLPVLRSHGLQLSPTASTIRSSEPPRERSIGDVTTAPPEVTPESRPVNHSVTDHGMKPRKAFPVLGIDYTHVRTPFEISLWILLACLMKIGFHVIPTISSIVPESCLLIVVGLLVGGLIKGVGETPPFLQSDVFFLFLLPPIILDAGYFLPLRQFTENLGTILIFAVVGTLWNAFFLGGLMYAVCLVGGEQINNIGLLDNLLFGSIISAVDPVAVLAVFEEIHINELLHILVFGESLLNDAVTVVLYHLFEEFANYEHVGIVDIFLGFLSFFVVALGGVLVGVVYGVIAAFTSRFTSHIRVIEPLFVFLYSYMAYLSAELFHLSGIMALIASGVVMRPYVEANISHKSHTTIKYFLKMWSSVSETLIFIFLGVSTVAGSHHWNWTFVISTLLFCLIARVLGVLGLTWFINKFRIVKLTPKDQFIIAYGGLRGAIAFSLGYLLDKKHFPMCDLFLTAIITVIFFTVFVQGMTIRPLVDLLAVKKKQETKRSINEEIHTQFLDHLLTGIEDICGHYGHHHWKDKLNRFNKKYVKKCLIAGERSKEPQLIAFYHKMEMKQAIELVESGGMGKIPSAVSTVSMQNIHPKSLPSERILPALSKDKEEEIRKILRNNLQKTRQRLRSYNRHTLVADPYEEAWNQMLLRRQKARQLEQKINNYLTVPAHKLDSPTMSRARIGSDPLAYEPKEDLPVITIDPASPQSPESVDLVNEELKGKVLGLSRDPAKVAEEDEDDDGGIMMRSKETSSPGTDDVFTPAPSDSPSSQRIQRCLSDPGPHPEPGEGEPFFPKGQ

[5] = tested on: animal models of DMD and dilated cardiomyopathy; settings: cited from earlier work
[6] = tested on: monocrotaline-treated rats; settings: in vivo; cited from earlier work
[7] = relative humidity range 0-80% rh

**Q.** For N=C(N)NC(=O)c1nc(Cl)c(N)nc1N [Amiloride], which “Proliferation and migration of human PASMCs” value (human PASMCs) is on record?
**A.** inhibit proliferation and migration

**Q.** For CCN(c1nc(N)c(C(=O)NC(=N)N)nc1Cl)C(C)C [EIPA], which “Proliferation and migration of human PASMCs” value (human PASMCs) is on record?
**A.** inhibit proliferation and migration

**Q.** What about the Proliferation and migration (SuHx rats) of the same molecule?
**A.** inhibit proliferation and migration

**Q.** With Cc1cc(S(C)(=O)=O)c(S(C)(=O)=O)cc1C(=O)NC(=N)N [Malonate-NF1, N-(4,5-bis-methanesulfonyl-2-methyl-benzoyl)-guanidine] as the molecule, how does the “Dissolution levels in FeSSIF pH 5.0” value ([1]; 5 min) read?
**A.** 3.527 mg/mL

**Q.** And the “Dissolution levels in FeSSIF pH 5.0” value ([1]; 15 min)?
**A.** 5.340 mg/mL

**Q.** And the “Dissolution levels in FeSSIF pH 5.0” value ([1]; 60 min)?
**A.** 5.77±0.02 mg/mL and 5.770 mg/mL

**Q.** What about the “Dissolution levels in FeSSIF pH 5.0” value ([1]; 120 min) of the same molecule?
**A.** 5.79±0.02 mg/mL and 5.790 mg/mL

**Q.** What about the “Dissolution behavior compared to prior-art form HCl-H1” value [1] of the same molecule?
**A.** improved dissolution behavior

**Q.** And the “Hygroscopicity classification acc. to Ph. Eur. criteria (section 5.11.)” value [2]?
**A.** slightly hygroscopic

**Q.** And the “Water uptake levels (Water Vapour Sorption)” value (shortened to “Water uptake levels”) [2, 7]?
**A.** ≤ 1.0 wt %

**Q.** What about the “Thermal stability (mp/dec)” value [3] of the same molecule?
**A.** > 190 °C

**Q.** Which results are given for Cc1cc(S(C)(=O)=O)c(S(C)(=O)=O)cc1C(=O)NC(=N)N [Oxalate-NF1, N-(4,5-bis-methanesulfonyl-2-methyl-benzoyl)-guanidine]?
**A.** Dissolution levels in FeSSIF pH 5.0 ([1]; 5 min): 1.329 mg/mL; Dissolution levels in FeSSIF pH 5.0 ([1]; 15 min): 2.09±0.02 mg/mL and 2.095 mg/mL; Dissolution levels in FeSSIF pH 5.0 ([1]; 60 min): 3.04±0.02 mg/mL and 3.042 mg/mL; Dissolution levels in FeSSIF pH 5.0 ([1]; 120 min): 3.02±0.02 mg/mL and 3.025 mg/mL; Dissolution behavior compared to prior-art form HCl-H1 [1]: improved dissolution behavior; Hygroscopicity classification acc. to Ph. Eur. criteria (section 5.11.) [2]: non-hygroscopic; Tendency to undergo hydrate formation [2]: no tendency to undergo hydrate formation; Thermal stability (mp/dec) [3]: > 260 °C

**Q.** Which results are given for Cc1cc(S(C)(=O)=O)c(S(C)(=O)=O)cc1C(=O)NC(=N)N [Phosphate-NF1, N-(4,5-bis-methanesulfonyl-2-methyl-benzoyl)-guanidine]?
**A.** Dissolution levels in FeSSIF pH 5.0 ([1]; 5 min): 3.373 mg/mL; Dissolution levels in FeSSIF pH 5.0 ([1]; 15 min): 5.92±0.02 mg/mL and 5.919 mg/mL; Dissolution levels in FeSSIF pH 5.0 ([1]; 60 min): 6.35±0.02 mg/mL and 6.345 mg/mL; Dissolution levels in FeSSIF pH 5.0 ([1]; 120 min): 6.35±0.02 mg/mL and 6.345 mg/mL; Dissolution behavior compared to prior-art form HCl-H1 [1]: improved dissolution behavior; Hygroscopicity classification acc. to Ph. Eur. criteria (section 5.11.) [2]: slightly hygroscopic; Water uptake levels (Water Vapour Sorption) ([2]; relative humidity range 0-90% rh): ≤ 1.0 wt %; Tendency to undergo hydrate formation [2]: no tendency to undergo hydrate formation; Thermal stability (mp/dec) [3]: > 230 °C

**Q.** Which “Inhibition of NHE-1” value [4] does the source give for Cc1cc(S(C)(=O)=O)c(S(C)(=O)=O)cc1C(=O)N=C(N)N [Rimeporide, N-(4,5-bismethanesulfonyl-2-methylbenzoyl)guanidine] here?
**A.** potent and selective inhibitor

**Q.** And the Cardioprotective action ([5]; animal models of DMD and dilated cardiomyopathy)?
**A.** good cardioprotective action

**Q.** What about the “Long term accumulation of inflammation and fibrosis” value ([5]; animal models of DMD, skeletal muscles, the heart and the diaphragm) of the same molecule?
**A.** prevent against the long term accumulation of inflammation and fibrosis

**Q.** Which “Proliferation and migration of human PASMCs” value (human PASMCs) does the source give for N=C(N)NC(=O)c1ccc(N2CCN(C(=O)c3ccc[nH]3)CC2)c(C(F)(F)F)c1 [Sabiporide] here?
**A.** inhibit proliferation and migration

**Q.** For Cc1cc(S(C)(=O)=O)c(S(C)(=O)=O)cc1C(=O)NC(=N)N [Succinate-NF1, N-(4,5-bis-methanesulfonyl-2-methyl-benzoyl)-guanidine], which “Dissolution levels in FeSSIF pH 5.0” value ([1]; 5 min) is on record?
**A.** 1.105 mg/mL

**Q.** And the “Dissolution levels in FeSSIF pH 5.0” value ([1]; 15 min)?
**A.** 3.26±0.02 mg/mL and 3.260 mg/mL

**Q.** What about the “Dissolution levels in FeSSIF pH 5.0” value ([1]; 60 min) of the same molecule?
**A.** 5.10±0.02 mg/mL and 5.104 mg/mL

**Q.** What about the “Dissolution levels in FeSSIF pH 5.0” value ([1]; 120 min) of the same molecule?
**A.** 5.03±0.02 mg/mL and 5.032 mg/mL

**Q.** And the “Dissolution behavior compared to prior-art form HCl-H1” value [1]?
**A.** improved dissolution behavior

**Q.** What about the “Hygroscopicity classification acc. to Ph. Eur. criteria (section 5.11.)” value [2] of the same molecule?
**A.** non-hygroscopic

**Q.** What about the “Water uptake levels” value [2, 7] of the same molecule?
**A.** ≤ 0.2 wt %

**Q.** And the “Thermal stability (mp/dec)” value [3]?
**A.** > 200 °C

**Q.** Which “Dissolution levels in FeSSIF pH 5.0” value ([1]; 5 min) does the source give for Cc1cc(S(C)(=O)=O)c(S(C)(=O)=O)cc1C(=O)NC(=N)N [Sulfate-NF3, N-(4,5-bis-methanesulfonyl-2-methyl-benzoyl)-guanidine] here?
**A.** 2.590 mg/mL

**Q.** What about the “Dissolution levels in FeSSIF pH 5.0” value ([1]; 15 min) of the same molecule?
**A.** 3.70±0.02 mg/mL and 3.703 mg/mL

**Q.** And the “Dissolution levels in FeSSIF pH 5.0” value ([1]; 60 min)?
**A.** 4.65±0.02 mg/mL and 4.646 mg/mL

**Q.** What about the “Dissolution levels in FeSSIF pH 5.0” value ([1]; 120 min) of the same molecule?
**A.** 4.70±0.02 mg/mL and 4.705 mg/mL

**Q.** What about the “Dissolution behavior compared to prior-art form HCl-H1” value [1] of the same molecule?
**A.** improved dissolution behavior

**Q.** And the “Hygroscopicity classification acc. to Ph. Eur. criteria (section 5.11.)” value [2]?
**A.** slightly hygroscopic

**Q.** And the “Water uptake levels” value [2, 7]?
**A.** ≤ 0.5 wt %

**Q.** What about the “Thermal stability (mp/dec)” value [3] of the same molecule?
**A.** > 210 °C

**Q.** For Cc1cc(S(C)(=O)=O)c(S(C)(=O)=O)cc1C(=O)NC(=N)N [Tosylate-NF1, N-(4,5-bis-methanesulfonyl-2-methyl-benzoyl)-guanidine], which “Dissolution levels in FeSSIF pH 5.0” value ([1]; 5 min) is on record?
**A.** 1.961 mg/mL

**Q.** What about the “Dissolution levels in FeSSIF pH 5.0” value ([1]; 15 min) of the same molecule?
**A.** 4.85±0.02 mg/mL and 4.850 mg/mL

**Q.** What about the “Dissolution levels in FeSSIF pH 5.0” value ([1]; 60 min) of the same molecule?
**A.** 5.28±0.02 mg/mL and 5.285 mg/mL

**Q.** What about the “Dissolution levels in FeSSIF pH 5.0” value ([1]; 120 min) of the same molecule?
**A.** 2.86±0.02 mg/mL and 2.859 mg/mL

**Q.** What about the “Dissolution behavior compared to prior-art form HCl-H1” value [1] of the same molecule?
**A.** improved dissolution behavior

**Q.** What about the “Hygroscopicity classification acc. to Ph. Eur. criteria (section 5.11.)” value [2] of the same molecule?
**A.** slightly hygroscopic

**Q.** And the “Water uptake levels” value [2, 7]?
**A.** 1.0 wt %

**Q.** What about the “Thermally stable up to” value [3] of the same molecule?
**A.** ~180 °C

**Q.** Which “Development of right heart failure” value [6] does the source give for CC(C)c1ccc(C(=O)NC(=N)N)cc1S(C)(=O)=O [cariporide] here?
**A.** attenuate the development of right heart failure
